Results from ChEMBL document CHEMBL5465560, “Selectivity Literature for EUbOPEN Chemogenomic Library” (2024).

Tests used:
[1] = target: T1, Serine/threonine-protein kinase PLK4 (Homo sapiens) (UniProt O00444); test: Selectivity interaction (KinomeScan (DiscoverX)) EUB0000229b PLK4; settings: at 10 µM
T1 sequence (whole entry): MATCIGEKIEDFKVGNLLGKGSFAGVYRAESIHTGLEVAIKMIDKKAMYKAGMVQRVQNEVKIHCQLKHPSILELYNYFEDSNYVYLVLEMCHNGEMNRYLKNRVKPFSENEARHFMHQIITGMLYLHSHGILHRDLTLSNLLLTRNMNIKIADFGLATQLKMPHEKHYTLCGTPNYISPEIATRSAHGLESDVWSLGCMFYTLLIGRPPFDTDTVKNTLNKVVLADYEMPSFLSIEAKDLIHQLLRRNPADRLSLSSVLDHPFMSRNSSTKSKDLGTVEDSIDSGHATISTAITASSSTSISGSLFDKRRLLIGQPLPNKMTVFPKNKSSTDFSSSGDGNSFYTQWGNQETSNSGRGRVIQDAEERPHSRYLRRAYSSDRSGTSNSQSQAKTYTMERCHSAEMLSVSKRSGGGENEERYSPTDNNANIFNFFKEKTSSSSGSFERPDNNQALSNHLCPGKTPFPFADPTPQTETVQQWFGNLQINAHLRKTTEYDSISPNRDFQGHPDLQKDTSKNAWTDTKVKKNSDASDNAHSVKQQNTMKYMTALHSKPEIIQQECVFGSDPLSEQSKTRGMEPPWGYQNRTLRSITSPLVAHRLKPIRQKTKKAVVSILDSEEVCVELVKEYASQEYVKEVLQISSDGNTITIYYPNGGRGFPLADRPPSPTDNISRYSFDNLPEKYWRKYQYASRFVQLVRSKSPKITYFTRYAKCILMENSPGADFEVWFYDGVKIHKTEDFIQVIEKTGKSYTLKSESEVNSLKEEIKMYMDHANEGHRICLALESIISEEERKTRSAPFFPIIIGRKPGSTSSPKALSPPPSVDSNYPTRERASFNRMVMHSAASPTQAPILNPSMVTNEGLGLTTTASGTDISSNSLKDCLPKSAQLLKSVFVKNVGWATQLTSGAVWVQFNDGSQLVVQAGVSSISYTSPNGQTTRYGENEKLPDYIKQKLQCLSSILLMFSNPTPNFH

[2] = target: Calcium/calmodulin-dependent protein kinase type 1 (Homo sapiens) (UniProt Q14012); test: Selectivity interaction (Upstate Kinase Profiler service (Millipore)) EUB0000056c CAMK1; settings: at 1 µM
[3] = target: Tyrosine-protein kinase JAK1 (Homo sapiens, UniProt P23458); test: Selectivity interaction (KinomeScan (DiscoverX)) EUB0000655a JAK1; settings: at 10 µM
[4] = target: T2, Serine/threonine-protein kinase Nek2 (Homo sapiens) (UniProt P51955); test: Selectivity interaction (ProQinase) EUB0000171b NEK2
T2 sequence (whole entry): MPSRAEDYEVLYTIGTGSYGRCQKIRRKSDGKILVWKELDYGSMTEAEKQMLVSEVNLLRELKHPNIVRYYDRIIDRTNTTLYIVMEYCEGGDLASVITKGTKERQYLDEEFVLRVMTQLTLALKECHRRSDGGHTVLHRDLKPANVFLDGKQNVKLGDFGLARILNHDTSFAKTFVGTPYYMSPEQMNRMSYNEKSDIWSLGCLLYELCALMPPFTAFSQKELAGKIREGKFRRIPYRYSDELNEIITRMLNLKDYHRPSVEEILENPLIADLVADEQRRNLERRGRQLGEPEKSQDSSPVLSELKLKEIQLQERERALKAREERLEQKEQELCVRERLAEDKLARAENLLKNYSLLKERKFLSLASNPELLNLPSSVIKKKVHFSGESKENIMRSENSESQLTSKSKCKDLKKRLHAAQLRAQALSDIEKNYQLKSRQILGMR

[5] = target: Glycogen synthase kinase-3 beta (Homo sapiens, UniProt P49841); test: Selectivity interaction (KinomeScan (DiscoverX)) EUB0001079a GSK3B; settings: at 1 µM
[6] = tested on: Epidermal growth factor receptor (Homo sapiens), P00533 [UNDEFINED MUTATION]; test: Selectivity interaction (KinomeScan (DiscoverX)) EUB0000666a EGFR; settings: at 10 µM
[7] = target: Phosphatidylinositol 3-kinase catalytic subunit type 3 (Homo sapiens, UniProt Q8NEB9); test: Selectivity interaction (Kinase panel (Invitrogen)) EUB0000639a PIK3C3; settings: at 200 nM
[8] = target: T3, Serine/threonine-protein kinase Nek3 (Homo sapiens) (UniProt P51956); test: Selectivity interaction (KinomeScan (DiscoverX)) EUB0000607a NEK3; settings: at 10 µM
T3 sequence (whole entry): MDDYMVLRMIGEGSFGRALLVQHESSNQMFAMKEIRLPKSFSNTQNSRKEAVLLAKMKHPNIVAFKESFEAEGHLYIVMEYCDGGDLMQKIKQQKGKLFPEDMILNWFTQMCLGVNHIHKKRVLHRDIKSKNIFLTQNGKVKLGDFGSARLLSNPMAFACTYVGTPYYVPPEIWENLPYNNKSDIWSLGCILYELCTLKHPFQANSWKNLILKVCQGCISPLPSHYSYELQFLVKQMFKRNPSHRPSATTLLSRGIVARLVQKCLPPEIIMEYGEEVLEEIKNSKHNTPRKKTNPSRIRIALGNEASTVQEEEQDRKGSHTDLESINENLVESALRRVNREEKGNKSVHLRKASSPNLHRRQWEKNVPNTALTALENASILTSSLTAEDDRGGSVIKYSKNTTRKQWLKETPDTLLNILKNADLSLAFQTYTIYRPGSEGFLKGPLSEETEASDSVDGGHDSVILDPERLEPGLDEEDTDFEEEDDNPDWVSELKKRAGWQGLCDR

[9] = target: Serine/threonine-protein kinase PAK 4 (Homo sapiens, UniProt O96013); test: Selectivity interaction (SelectScreen profiling (Invitrogen)) EUB0000607a PAK4; settings: at 2 µM
[10] = target: Tyrosine-protein kinase Yes (Homo sapiens) (UniProt P07947); test: Selectivity interaction (Ambit KINOMEscan and KiNATiv profiling in Jurkat cells) EUB0000090b YES1; format: cell-based; settings: at 1 µM
Tyrosine-protein kinase Yes (Homo sapiens), sequence (P07947 2-543 limits assumed): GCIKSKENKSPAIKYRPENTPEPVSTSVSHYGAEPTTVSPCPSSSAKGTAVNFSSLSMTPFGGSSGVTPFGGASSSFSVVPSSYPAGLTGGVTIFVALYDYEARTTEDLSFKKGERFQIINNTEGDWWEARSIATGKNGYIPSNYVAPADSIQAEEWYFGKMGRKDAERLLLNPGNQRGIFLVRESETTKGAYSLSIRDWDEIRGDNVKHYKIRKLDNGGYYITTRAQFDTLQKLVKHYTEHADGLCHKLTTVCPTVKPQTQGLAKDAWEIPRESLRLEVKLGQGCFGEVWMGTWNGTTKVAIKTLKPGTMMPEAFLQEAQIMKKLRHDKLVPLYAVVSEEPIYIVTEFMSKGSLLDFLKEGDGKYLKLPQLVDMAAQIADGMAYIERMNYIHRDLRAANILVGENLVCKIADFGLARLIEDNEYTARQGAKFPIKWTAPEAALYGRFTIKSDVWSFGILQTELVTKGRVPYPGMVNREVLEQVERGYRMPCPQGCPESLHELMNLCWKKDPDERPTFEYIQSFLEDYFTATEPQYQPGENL

Serine/threonine-protein kinase PAK 4, sequence (O96013 whole entry, looked up): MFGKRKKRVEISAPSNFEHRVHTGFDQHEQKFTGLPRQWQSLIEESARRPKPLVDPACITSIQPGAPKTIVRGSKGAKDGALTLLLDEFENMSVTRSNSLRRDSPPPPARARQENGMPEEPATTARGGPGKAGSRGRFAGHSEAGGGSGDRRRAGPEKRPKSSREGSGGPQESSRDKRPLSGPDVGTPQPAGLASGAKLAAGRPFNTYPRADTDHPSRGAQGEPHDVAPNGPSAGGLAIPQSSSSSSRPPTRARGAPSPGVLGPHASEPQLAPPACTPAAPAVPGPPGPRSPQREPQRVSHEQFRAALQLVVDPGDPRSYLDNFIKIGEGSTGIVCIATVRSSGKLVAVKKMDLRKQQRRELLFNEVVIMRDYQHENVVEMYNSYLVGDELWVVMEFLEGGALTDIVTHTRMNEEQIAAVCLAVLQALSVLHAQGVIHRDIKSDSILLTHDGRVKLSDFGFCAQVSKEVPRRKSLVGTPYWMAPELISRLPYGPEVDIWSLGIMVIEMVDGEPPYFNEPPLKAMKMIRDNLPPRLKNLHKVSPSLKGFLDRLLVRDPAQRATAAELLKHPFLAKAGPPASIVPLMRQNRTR
Epidermal growth factor receptor (Homo sapiens), P00533 [UNDEFINED MUTATION], sequence (P00533 whole entry, looked up, change not shown): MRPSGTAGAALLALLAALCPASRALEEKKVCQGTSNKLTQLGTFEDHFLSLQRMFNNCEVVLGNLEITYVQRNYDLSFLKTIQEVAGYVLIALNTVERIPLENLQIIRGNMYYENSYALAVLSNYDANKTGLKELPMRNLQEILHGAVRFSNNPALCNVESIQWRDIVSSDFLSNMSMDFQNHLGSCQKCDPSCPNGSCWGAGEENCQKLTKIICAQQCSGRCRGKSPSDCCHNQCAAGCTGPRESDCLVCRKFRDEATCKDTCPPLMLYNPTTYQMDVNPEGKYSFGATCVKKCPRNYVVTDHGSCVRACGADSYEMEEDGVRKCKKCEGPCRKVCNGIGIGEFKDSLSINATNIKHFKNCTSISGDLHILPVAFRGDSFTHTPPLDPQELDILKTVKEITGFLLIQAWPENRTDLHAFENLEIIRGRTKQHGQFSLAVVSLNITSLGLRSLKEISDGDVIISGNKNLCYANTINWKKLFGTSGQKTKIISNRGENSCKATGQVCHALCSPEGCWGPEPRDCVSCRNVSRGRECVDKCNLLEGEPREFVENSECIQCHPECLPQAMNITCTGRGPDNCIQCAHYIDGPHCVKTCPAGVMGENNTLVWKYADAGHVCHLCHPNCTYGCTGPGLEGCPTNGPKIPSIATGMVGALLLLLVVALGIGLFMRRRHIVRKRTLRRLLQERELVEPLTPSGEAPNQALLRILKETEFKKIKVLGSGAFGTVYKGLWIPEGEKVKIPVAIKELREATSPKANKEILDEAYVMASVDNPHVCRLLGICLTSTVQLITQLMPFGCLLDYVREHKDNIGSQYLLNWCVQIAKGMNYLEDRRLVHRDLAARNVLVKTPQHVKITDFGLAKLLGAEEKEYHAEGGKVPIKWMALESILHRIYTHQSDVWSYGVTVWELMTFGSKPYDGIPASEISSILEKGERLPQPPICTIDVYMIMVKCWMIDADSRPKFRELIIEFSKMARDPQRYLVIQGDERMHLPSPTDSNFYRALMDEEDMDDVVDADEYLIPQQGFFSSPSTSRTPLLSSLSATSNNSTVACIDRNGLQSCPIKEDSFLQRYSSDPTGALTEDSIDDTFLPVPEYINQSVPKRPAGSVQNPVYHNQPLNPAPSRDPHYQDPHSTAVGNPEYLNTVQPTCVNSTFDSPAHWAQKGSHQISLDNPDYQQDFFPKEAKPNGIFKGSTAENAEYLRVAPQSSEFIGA
Calcium/calmodulin-dependent protein kinase type 1 (Homo sapiens), sequence (Q14012 whole entry, looked up): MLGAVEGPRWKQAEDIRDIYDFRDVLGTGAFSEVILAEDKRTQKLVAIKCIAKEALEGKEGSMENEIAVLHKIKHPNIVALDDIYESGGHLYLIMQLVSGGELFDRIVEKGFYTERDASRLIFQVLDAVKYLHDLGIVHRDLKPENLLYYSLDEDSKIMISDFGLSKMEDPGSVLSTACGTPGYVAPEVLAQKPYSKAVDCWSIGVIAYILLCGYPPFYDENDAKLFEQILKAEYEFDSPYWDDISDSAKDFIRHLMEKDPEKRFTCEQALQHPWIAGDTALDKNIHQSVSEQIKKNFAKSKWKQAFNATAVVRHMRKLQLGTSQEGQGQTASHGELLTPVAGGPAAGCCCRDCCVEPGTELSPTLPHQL
Phosphatidylinositol 3-kinase catalytic subunit type 3, sequence (Q8NEB9 whole entry): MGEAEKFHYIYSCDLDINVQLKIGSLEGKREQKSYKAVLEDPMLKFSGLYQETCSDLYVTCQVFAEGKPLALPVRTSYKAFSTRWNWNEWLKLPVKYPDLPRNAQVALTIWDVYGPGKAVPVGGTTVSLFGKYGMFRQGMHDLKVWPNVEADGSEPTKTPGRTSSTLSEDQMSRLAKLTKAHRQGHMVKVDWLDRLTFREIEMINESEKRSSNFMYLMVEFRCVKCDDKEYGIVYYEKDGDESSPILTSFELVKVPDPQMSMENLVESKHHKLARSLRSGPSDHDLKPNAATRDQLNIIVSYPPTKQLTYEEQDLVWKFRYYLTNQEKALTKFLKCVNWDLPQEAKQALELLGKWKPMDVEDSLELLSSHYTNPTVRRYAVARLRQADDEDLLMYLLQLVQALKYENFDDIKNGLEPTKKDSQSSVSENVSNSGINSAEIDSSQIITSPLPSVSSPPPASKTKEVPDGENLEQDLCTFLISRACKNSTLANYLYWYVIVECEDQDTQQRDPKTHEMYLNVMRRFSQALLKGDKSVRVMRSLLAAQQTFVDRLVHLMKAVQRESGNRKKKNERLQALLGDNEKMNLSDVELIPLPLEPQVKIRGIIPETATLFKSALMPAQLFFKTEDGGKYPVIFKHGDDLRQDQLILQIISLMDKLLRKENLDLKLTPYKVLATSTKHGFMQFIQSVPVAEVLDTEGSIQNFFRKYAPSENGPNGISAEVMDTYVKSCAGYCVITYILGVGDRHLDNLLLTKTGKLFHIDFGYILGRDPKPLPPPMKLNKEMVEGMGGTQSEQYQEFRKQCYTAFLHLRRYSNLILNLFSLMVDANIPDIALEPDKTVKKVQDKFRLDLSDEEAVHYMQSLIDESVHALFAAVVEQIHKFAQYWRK
Glycogen synthase kinase-3 beta, sequence (P49841 whole entry, looked up): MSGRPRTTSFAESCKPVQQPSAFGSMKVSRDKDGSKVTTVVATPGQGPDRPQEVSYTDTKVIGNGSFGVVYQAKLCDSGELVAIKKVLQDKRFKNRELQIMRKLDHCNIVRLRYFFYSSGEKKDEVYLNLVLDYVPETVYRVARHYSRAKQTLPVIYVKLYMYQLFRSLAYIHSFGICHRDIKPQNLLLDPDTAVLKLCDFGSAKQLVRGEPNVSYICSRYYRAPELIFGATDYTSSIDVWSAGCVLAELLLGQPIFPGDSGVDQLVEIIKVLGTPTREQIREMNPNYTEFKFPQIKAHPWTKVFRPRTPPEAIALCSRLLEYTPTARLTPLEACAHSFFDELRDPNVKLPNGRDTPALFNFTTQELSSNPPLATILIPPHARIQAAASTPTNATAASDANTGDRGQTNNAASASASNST

COc1cc(N(C)c2ccnc3ccc(C(F)(F)F)cc23)cc(OC)c1OC
% binding [1]: 99%

Cc1ccc(-c2ccc3c(ccc4sc5c(c43)NC[C@@H](C)NC5=O)n2)cn1
% of inhibition [2]: 2%

CN(C)CCOc1ccc(-c2nc(-c3ccncc3)c(-c3ccc4c(c3)CC/C4=N\O)[nH]2)cc1
% of control [3]: 100%

C=CC(=O)Nc1cccc(C(=O)Nc2ccc(Nc3cc(-c4[nH]c(SC)nc4C)ccn3)cc2)c1
% of control ([4]; at 1 µM): 92% | % of control ([4]; at 5 µM): 78%

Nc1cnc(N2CCc3cc(S(=O)(=O)Nc4c(F)cc(Cl)cc4F)cc(N4CCCC4=O)c32)nc1 [TP-020n]
% of control [5]: 100%

O=C(NOC[C@H](O)CO)c1ccc(F)c(F)c1Nc1ccc(I)cc1F
% of control [6]: 70%

CC[C@@H]1[C@H](F)C(=O)N[C@@H]1COc1nccc2cc(C(N)=O)c(OC)cc12 [ZIMLOVISERTIB]
% of inhibition [7]: -5.2%

CNC(=O)Nc1ccc(-c2nc(N3CC4CCC(C3)O4)c3cnn(C4CCC5(CC4)OCCO5)c3n2)cc1
% of control [8]: 100% | % of inhibition [9]: 13%

CN(C)C/C=C/C(=O)Nc1ccc(C(=O)N2CCCC(Nc3ncc(Cl)c(-c4c[nH]c5ccccc45)n3)C2)cc1 (stereo unspecified)
% of control [10]: 94%
